Laboratory results published in ChEMBL document CHEMBL1201862, “PubChem BioAssay data set” (2004).
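Interpolation was linear, between the two tested concentrations surrounding the appropriate level; five concentrations were tested over 48 hours in 96-well plates. The concentration for 50% growth inhibition is given as GI50.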 Activity calls are given as the source filed them. No stated cut-off is given here; in the data, active = GI50 up to about 1.1 µM and inactive = higher.

How the values were obtained:
Assay in all cases: DTP human tumour cell line panel, 48 h
[1] = system: DLD-1
[2] = system: DMS-114
[3] = system: DMS-273
[4] = system: HOP-18
[5] = system: LXFL 529
[6] = system: M19-MEL
[7] = system: RXF 631
[8] = system: SNB-78
[9] = system: XF498

Measured: GI50

O=C(O)c1ccc([N+](=O)[O-])c2c(=O)c3ccccc3[nH]c12
inactive: [1] > 100 µM | [2] > 100 µM | [3] > 100 µM | [4] > 100 µM | [5] > 100 µM | [6] > 100 µM | [7] > 100 µM | [8] > 100 µM

CN(CC(=O)O)S(=O)(=O)c1ccc(F)cc1
inactive: [1] > 100 µM | [3] > 100 µM | [4] > 100 µM | [5] > 100 µM | [6] > 100 µM | [7] > 100 µM | [9] > 100 µM

O/N=C(\c1nc2ccc(Cl)cc2nc1O)C(O)c1ccc(Cl)cc1Cl (stereo unspecified)
inactive: [1] > 100 µM | [2] > 100 µM | [3] > 100 µM | [5] > 100 µM | [6] > 100 µM | [7] > 100 µM | [8] > 100 µM | [9] > 100 µM

C/C(CC(=O)Nc1ccc(Cl)c(Cl)c1)=N/NC(=O)C[n+]1ccccc1
inactive: [2] 28.4 µM | [3] 40.9 µM | [4] > 100 µM | [5] 66.7 µM | [6] > 100 µM | [8] > 100 µM | [9] > 100 µM

O=C(Nc1nc2ccc([N+](=O)[O-])cc2s1)C(=O)C(C1OC(=O)c2ccccc21)[N+](=O)[O-] (stereo unspecified)
inactive: [1] 64.6 µM | [5] 85.1 µM | [6] > 100 µM | [7] 70.1 µM | [8] 85.5 µM | [9] 27.6 µM

CCCCN1C(=O)C2c3[nH]c4ccccc4c3C3CCCCC3C2C1=O.CCCCN1C(=O)C2c3[nH]c4ccccc4c3[C@@H]3CCCCC3C2C1=O (stereo unspecified)
inactive: [1] 12.9 µM | [2] 12.9 µM | [3] 10.3 µM | [4] 2.26 µM | [5] 13.6 µM | [6] 37.2 µM | [7] 13.7 µM | [8] 15 µM | [9] 12.5 µM

COc1cc(C2C(C(=O)Nc3cc(F)c(F)cc3F)=C(C)NC(C)=C2C(=O)Nc2cc(F)c(F)cc2F)ccc1O
inactive: [1] 21.5 µM | [2] 14 µM | [5] 21.5 µM | [6] 23.4 µM | [7] 15 µM | [8] 22.5 µM | [9] 4.66 µM

Cc1ccc2c(C3Cc4ccccc4N3C(=O)/C=C\C(=O)O)c(C)[nH]c2c1 (stereo unspecified)
inactive: [1] 60.3 µM | [2] 31.4 µM | [3] 41.7 µM | [5] 18.7 µM | [6] 67.5 µM | [8] 17.5 µM

CC(C(=O)[O-])S(=O)(=O)O.CCc1c2cc(OC)c(OC)cc2cc2c3cc(OC)c(OC)cc3cc[n+]12
inactive: [1] 65 µM | [2] 7.83 µM | [3] 45.2 µM | [4] 68.1 µM | [5] 5.09 µM | [6] 13.6 µM | [8] 33.7 µM | [9] 5.64 µM

COc1ccc(/C=[N+](\[O-])[C@H](COCc2ccccc2)c2ccccc2)cc1
inactive: [1] 89.1 µM | [2] > 100 µM | [3] > 100 µM | [4] 57.4 µM | [5] 77.8 µM | [7] > 100 µM | [8] > 100 µM | [9] > 100 µM

COCC(O)CN1C(N)=NC(O)C1O (stereo unspecified)
inactive: [1] > 100 µM | [2] > 100 µM | [3] > 10 µM | [4] > 100 µM | [5] > 100 µM | [6] > 100 µM | [8] > 100 µM

CC(=O)OC1COC(N2C(=O)C(=O)c3cc(Br)c([N+](=O)[O-])cc32)C(OC(C)=O)C1OC(C)=O (stereo unspecified)
inactive: [1] 34.4 µM | [2] 24.7 µM | [3] > 100 µM | [4] > 100 µM | [5] 50.8 µM | [6] 21.2 µM | [7] 48.5 µM | [8] > 100 µM | [9] 35.9 µM

COC(=O)N/N=C(/Cc1occc(=O)c1O)C(=O)Nc1ccc([N+](=O)[O-])cc1[N+](=O)[O-]
inactive: [1] > 100 µM | [2] > 100 µM | [3] > 100 µM | [4] > 100 µM | [5] > 100 µM | [6] > 100 µM | [8] > 100 µM | [9] > 100 µM

COc1ccc(C2ON(c3ccccc3)CC=C2C)cc1 (stereo unspecified)
inactive: [1] 79.8 µM | [3] 64.7 µM | [5] 66.8 µM | [6] 43.2 µM | [7] 46.6 µM | [8] > 100 µM | [9] 95.7 µM

O=c1cccccc1NCCCNc1cccccc1=O
inactive: [2] > 100 µM | [3] > 100 µM | [5] > 100 µM | [6] > 100 µM | [7] 31 µM | [8] > 100 µM | [9] > 100 µM

COc1ccc(-c2cc(=O)c3ccccc3o2)cc1N
inactive: [2] 34 µM | [3] 41.3 µM | [4] 17.7 µM | [5] 35.7 µM | [6] 86.1 µM | [7] 42.3 µM | [8] 68.4 µM | [9] 18.2 µM

CCc1ccccc1NC(=O)/C(CC(=O)c1c(C)[n+]([O-])c2ccccc2[n+]1[O-])=N\NS(=O)(=O)c1ccc(C)cc1
inactive: [1] 24 µM | [2] 12.3 µM | [3] 35.4 µM | [5] 26.3 µM | [6] 16 µM | [7] > 100 µM | [8] 33.7 µM

CC(=O)OC(=O)O/C=C\CCl
inactive: [1] > 100 µM | [2] > 100 µM | [3] 62.8 µM | [4] > 100 µM | [5] > 100 µM | [6] > 100 µM | [7] > 100 µM | [8] > 100 µM

Cc1ccc(NC(=O)CCc2nnc3s/c(=C\c4cccc([N+](=O)[O-])c4)c(=O)n23)cc1
inactive: [1] > 100 µM | [2] > 100 µM | [3] > 100 µM | [4] > 100 µM | [5] > 100 µM | [6] > 100 µM | [7] 60 µM | [8] > 100 µM | [9] > 100 µM

CC(C)[Si](OCC1CC(C[C@H]2CC(C[C@H]3C[C@@H](CO[Si](C(C)C)(C(C)C)C(C)C)OC(C)(C)O3)OC(C)(C)O2)OC(C)(C)O1)(C(C)C)C(C)C (stereo partly specified)
inactive: [1] > 100 µM | [2] > 100 µM | [3] > 100 µM | [4] > 100 µM | [6] > 100 µM | [8] > 100 µM

O=C1OC(c2ccccc2)C2CC3CC4(CCC3CN12)OCCO4 (stereo unspecified)
inactive: [3] > 100 µM | [5] 32.7 µM | [7] > 100 µM | [8] > 100 µM | [9] 70.8 µM

C[n+]1cccc(NC(=O)c2ccc(NC(=O)C34CCC(C(=O)Nc5ccc(C(=O)Nc6ccc[n+](C)c6)cc5)(CC3)CC4)cc2)c1
inactive: [1] 10.9 µM | [2] 13.8 µM | [3] 6.82 µM | [4] 25.2 µM | [5] 2.81 µM | [6] 54.1 µM | [8] > 100 µM

Cc1ccc(NC(=O)c2cccc([N+](=O)[O-])c2O)c([N+](=O)[O-])c1
inactive: [1] 14.9 µM | [2] 12.6 µM | [3] 11.7 µM | [4] 19.2 µM | [5] 13 µM | [6] 14.3 µM | [7] 12.3 µM | [8] 19.4 µM | [9] 20.8 µM
